Patent US20200390767A1, “Formulations of 4-(7-Hydroxy-2-isopropyl-4-oxo-4H-quinazolin-3-yl)-benzonitrile” (NOVARTIS AG, priority 2019, published 2020)

How the values were obtained:
PRK surgery patients = experiment: PRK clinical study, ocular safety assessments and vital signs; type: in vivo, human
Excerpt: Adverse events and serious adverse events included an assessment of both systemic and ocular assessments. Systemic safety assessments included regular assessments of height and weight, vital signs, reporting medication errors including misuse/abuse, pregnancy reporting and early phase safety monitoring. The misuse/abuse, pregnancy reporting and early phase safety monitoring were not assessed for the study. Ocular safety assessments included the following: • Best-corrected visual acuity (BCVA) and uncorrected visual acuity (UCVA): Was measured at each visit using an ETDRS visual acuity chart at 4 meters (13 feet) or 1 meter (for patients that cannot read the 4 meter chart). The BCVA scoring was done based on the number of correctly read letters plus 30. If visual acuity was so poor that the patient could not read any of the largest letters at 1 meter, count fingers and hand movement vision and light perception was tested. • Intraocular Pressure (TOP): IOP measurements were conducted with applanation tonometry or Tonopen. • Dilated fundus exam: The dilated fundus examination included ophthalmoscopic assessments of the vitreous, retina/macula/choroid, and optic nerve. Evaluations for retinal tear/detachment, retinal hemorrhage, vitreous hemorrhage density, vitreous haze grading and abnormal findings were done and scored according to grading criteria. • Ocular hyperemia: Conjunctival redness of the bulbar conjunctiva in each eye at the slit lamp according to the McMonnies redness scale was graded. […] By adjusting the calibrated slit beam width and height, the maximum horizontal (wound width) and vertical dimensions (wound height) of the surgical epithelial wound was estimated. The evaluation was performed until wound closure and report of wound size as 0 horizontal and 0 vertical dimensions. • Slit-lamp biomicroscopy: Ocular signs (eyelids/conjunctiva, cornea, lens, and iris/anterior chamber) was assessed in both eyes by slit lamp biomicroscopy according to the grading criteria. • Blink rate: A blink was defined as a bilateral paroxysmal closure of the eyelids (duration <1 second) in the absence of a provoking external stimulus. Each blink assessment lasted for 2 min (or as close to 2 minutes as possible with minimum time 1 minute) and the obtained blink rate was averaged to calculate blink rate in blinks/min. • Tear production (Schirmer's test without anesthesia): The test was performed without anesthetic in both eyes simultaneously. Tear secretion was measured in millimeters of the length of strip wetted by tears. […] The strip was wetted with 1 drop of sterile saline and flicked to remove excess saline. The patient blinked several times to ensure dispersion of the dye throughout the tear film prior to grading on a scale of 0-3 (0=Normal, No staining; 1=Mild, Superficial stippling micropunctate staining; 2=Moderate, Macropunctate staining with some coalescent areas and 3=Severe, Numerous coalescent macropunctate areas and/or patches) for each of 5 zones (central plus 4 quadrants).

[1] = test system: postoperative ocular pain in patients undergoing photorefractive keratectomy (PRK) surgery; experiment: PRK clinical study, oral rescue medication use; type: in vivo, human
Method: Rescue medication consisted of oral analgesic (acetaminophen 300 mg+codeine 30 mg) as needed up to a total of 10 tabs/day or 1-2 tabs every 4 hours.
After 36 hours post-operation, the same number of patients took ORM in compound I vs. Vehicle (Table 24).

[2] = across the scheduled time points

Structure (SMILES): CC(C)c1nc2cc(O)ccc2c(=O)n1-c1ccc(C#N)cc1 [Compound I, 4-(7-hydroxy-2-isopropyl-4-oxo-4H-quinazolin-3-yl)-benzonitrile]
- Ocular hyperemia, grade 4 (McMonnies scale), versus Vehicle (PRK surgery patients; Day 2 postoperatively (24 hours after PRK surgery), all quadrants): less grade 4 hyperemia
- Ocular hyperemia, grade 3 (McMonnies scale), versus Vehicle (PRK surgery patients; Day 3 (48 hours post-operative)): less grade 3 hyperemia
- Dilated fundus exam (PRK surgery patients; [2]): No abnormal findings
- Slit-lamp biomicroscopy: aqueous flare, inflammatory cell grade, iris/anterior chamber, lens (PRK surgery patients; [2]): No abnormalities were observed
- Corneal staining versus Vehicle (PRK surgery patients; baseline, Day 8, EOS visit): No clinical differences were observed
- vital sign parameters (PRK surgery patients; during the study): within the normal range
- BCVA and UCVA versus Vehicle (PRK surgery patients; throughout the study): did not result in any trend or obvious difference
- Blink rate versus Vehicle (PRK surgery patients; throughout the study): no trend across the scheduled time points or obvious differences
- Intraocular pressure versus Vehicle (PRK surgery patients; throughout the study): No trend across the scheduled time points or obvious differences
- % Change (Compound I-Vehicle)/Vehicle, mg/kg of body weight ([1]; 0-6 hours post-operatively): −25%
- % Change (Compound I-Vehicle)/Vehicle, number of pills ([1]; 0-6 hours post-operatively): −25%
- amount of oral rescue medication, Mean (SD) ([1]; 0-6 hours post-operatively): 3.32 (4.684) mg/kg of body weight
- amount of oral rescue medication, Mean (SD) ([1]; 0-6 hours post-operatively, listed as compound I): 0.75 (1.032) Number of pills
- % Change (Compound I-Vehicle)/Vehicle, mg/kg of body weight ([1]; 0-12 hours post-operatively): −17%
- % Change (Compound I-Vehicle)/Vehicle, number of pills ([1]; 0-12 hours post-operatively): −15%
- amount of oral rescue medication, Mean (SD) ([1]; 0-12 hours post-operatively): 6.10 (8.062) mg/kg of body weight
- amount of oral rescue medication, Mean (SD) ([1]; 0-12 hours post-operatively, listed as compound I): 1.40 (1.780) Number of pills
- % Change (Compound I-Vehicle)/Vehicle, mg/kg of body weight ([1]; 0-24 hours post-operatively): −18%
- % Change (Compound I-Vehicle)/Vehicle, number of pills ([1]; 0-24 hours post-operatively): −16%
- amount of oral rescue medication, Mean (SD) ([1]; 0-24 hours post-operatively): 10.17 (12.335) mg/kg of body weight
- amount of oral rescue medication, Mean (SD) ([1]; 0-24 hours post-operatively, listed as compound I): 2.35 (2.751) Number of pills
- % Change (Compound I-Vehicle)/Vehicle, mg/kg of body weight ([1]; 0-48 hours post-operatively): −14%
- % Change (Compound I-Vehicle)/Vehicle, number of pills ([1]; 0-48 hours post-operatively): −13%
- amount of oral rescue medication, Mean (SD) ([1]; 0-48 hours post-operatively): 17.59 (19.850) mg/kg of body weight
- amount of oral rescue medication, Mean (SD) ([1]; 0-48 hours post-operatively, listed as compound I): 4.05 (4.466) Number of pills
- % Change (Compound I-Vehicle)/Vehicle, mg/kg of body weight ([1]; 0-72 hours post-operatively): −15%
- % Change (Compound I-Vehicle)/Vehicle, number of pills ([1]; 0-72 hours post-operatively): −14%
- amount of oral rescue medication, Mean (SD) ([1]; 0-72 hours post-operatively): 18.70 (21.509) mg/kg of body weight
- amount of oral rescue medication, Mean (SD) ([1]; 0-72 hours post-operatively, listed as compound I): 4.33 (4.896) Number of pills
